Test [1] has as its target T1, Cholecystokinin receptor type A (Rattus norvegicus, UniProt P30551).
T1 sequence (P30551 whole entry): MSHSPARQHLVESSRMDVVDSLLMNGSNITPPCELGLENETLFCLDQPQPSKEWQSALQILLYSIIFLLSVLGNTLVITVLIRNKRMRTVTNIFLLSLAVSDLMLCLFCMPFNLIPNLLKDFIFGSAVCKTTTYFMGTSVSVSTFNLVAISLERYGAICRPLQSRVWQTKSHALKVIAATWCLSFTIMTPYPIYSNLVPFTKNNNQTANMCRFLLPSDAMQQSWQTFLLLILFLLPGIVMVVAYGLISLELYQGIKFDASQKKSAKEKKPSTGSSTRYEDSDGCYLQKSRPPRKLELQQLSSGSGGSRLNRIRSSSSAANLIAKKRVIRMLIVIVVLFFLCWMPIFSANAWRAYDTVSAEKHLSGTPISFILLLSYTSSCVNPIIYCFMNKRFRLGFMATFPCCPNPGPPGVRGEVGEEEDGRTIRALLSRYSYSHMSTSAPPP
The test is described as follows: Inhibition of binding of [125I]CCK-8 to Cholecystokinin type A receptor in rat pancreas.

The target in another test is Opioid receptor (Rattus norvegicus, UniProt P33533+P34975+P33535). The test is described as follows: Displacement of [3H]dihydromorphine (DHM) from rat brain Opioid receptors.

A value given as a limit tells only on which side of the number the result lay.

Regarding `O=C1Nc2ccccc2C(c2ccccc2F)=NC1CNc1cnc(Cl)cn1` (centres undefined), in test [1], the 50% inhibitory concentration (IC50) came out at 15 µM.

In turn, `O=C(NCC1N=C(c2ccccc2F)c2ccccc2NC1=O)c1cc2ccccc2[nH]1` (centres undefined) showed an IC50 in test [1] of 7 µM.

As to `O=C(NCC1CNc2ccccc2C(c2ccccc2F)=N1)c1cc2ccccc2[nH]1` (centres undefined), the IC50 in test [1] amounted to 4 µM.

`Cc1ccc(C(=O)NC[C@H]2CN=C(c3ccc(F)cc3)c3ccc(C)cc3N2C)cc1` returned an IC50 in test [1] of 0.26 µM.

Take `CN1c2ccccc2C(c2ccccc2F)=NCC1CNC(=O)Cc1cccc2sccc12` (centres undefined): the IC50 on Opioid receptor was found to be 0.003 µM.

In test [1], `NCC1N=C(c2ccccc2F)c2ccccc2NC1=O` (centres undefined) had an IC50 of over 100 µM.

Consider `CN1c2ccccc2C(c2ccccc2F)NCC1CNC(=O)c1ccsc1` (centres undefined), for which the IC50 on Opioid receptor came to 0.03 µM.

The compound `CCN(CC)CNCC1CN=C(c2ccccc2F)c2ccccc2N1C` (centres undefined) had an IC50 in test [1] of over 100 µM.

Turning to `CN1c2ccccc2C(c2ccccc2F)=NCC1CNC(=O)c1ccc(Cl)cc1` (centres undefined), the IC50 at Opioid receptor was 0.0005 µM.

In turn, `Cc1ccc(C(=O)NC[C@@H]2CN=C(c3ccc(F)cc3)c3ccc(C)cc3N2C)cc1` showed an IC50 in test [1] of 0.029 µM.

`O=C(NCC1N=C(c2ccccc2F)c2ccccc2NC1=O)c1ccsc1` (centres undefined) showed an IC50 in test [1] of 22 µM.

For the compound `COC(=O)CC(NCC1CN=C(c2ccccc2F)c2ccccc2N1C)c1ccccc1` (centres undefined), the IC50 (on Opioid receptor; in test [1]) was 0.018 µM throughout.

The compound `CCN(CC)c1ccc(NCC2CN=C(c3ccccc3F)c3ccccc3N2C)cc1C(F)(F)F` (centres undefined) registered an IC50 in test [1] of 100 µM.

In the case of `O=C(NCC1N=C(c2ccccc2F)c2ccccc2NC1=O)OCc1ccccc1` (centres undefined), the IC50 turned out to be 12 µM at Opioid receptor and 22 µM in test [1].

At Opioid receptor, `CN1c2ccccc2C(c2ccccc2F)=NCC1CNC(=O)c1cc2ccccc2[nH]1` (centres undefined) yielded an IC50 of 0.0003 µM.

`CN1c2ccccc2C(c2ccccc2F)=NCC1CNC(=O)C(N)Cc1c[nH]c2ccccc12` (centres undefined) had an IC50 on Opioid receptor of 0.04 µM.

As to `O=C1Nc2ccccc2C(c2ccccc2F)=NC1CNCC1N=C(c2ccccc2F)c2ccccc2NC1=O` (centres undefined), the IC50 in test [1] turned out to be 14 µM.

In turn, `O=C(NCC1CNc2ccccc2C(c2ccccc2F)=N1)c1ccsc1` (centres undefined) came in with an IC50 in test [1] of 10 µM.

`O=C(NCC1CNc2ccccc2C(c2ccccc2F)=N1)C(O)c1ccccc1` (single isomer, unassigned; form 2) came in with an IC50 in test [1] of over 100 µM.

For the compound `CC(=O)NCSCC(=O)NCC1CN=C(c2ccccc2F)c2ccccc2N1C` (centres undefined), the IC50 at Opioid receptor was 0.12 µM.

Take `CN1c2ccccc2C(c2ccccc2F)=NCC1CNC(=O)C(O)c1ccccc1` (centres undefined): the IC50 was found to be 0.007 µM on Opioid receptor and 0.6 µM in test [1].

`CN1c2ccccc2C(c2ccccc2F)=NCC1CNC(=O)c1cccnc1` (centres undefined) registered an IC50 on Opioid receptor of 0.45 µM.

At Opioid receptor, `CN1c2ccccc2C(c2ccccc2F)=NCC1CNC(=O)Cc1c[nH]c2ccccc12` (centres undefined) registered an IC50 of 0.022 µM.

In the case of `O=C(NCC1CNc2ccccc2C(c2ccccc2F)=N1)OCc1ccccc1` (centres undefined), in test [1], the IC50 was found to be 28 µM.

With `CN1c2ccccc2C(c2ccccc2F)=NCC1CNC(=O)c1ccsc1` (racemic) [TIFLUADOM], in test [1], the IC50 amounted to 0.047 µM.

As to `O=C(NCC1CNc2ccccc2C(c2ccccc2F)=N1)C(O)c1ccccc1` (single isomer, unassigned; form 1), the IC50 in test [1] turned out to be 8 µM.

The values above are taken from ChEMBL document CHEMBL1124966, “Cholecystokinin-A receptor ligands based on the kappa-opioid agonist tifluadom” (J Med Chem, 1990).
